Results reported in patent US7910751B2, “Heterocyclidene acetamide derivative” (Mochida Pharmaceutical Co., Ltd., priority 2005, dated 2011).

Each compound was assayed against T1, human TRPV1 (Homo sapiens, UniProt Q8NER1) (assay: Measurement of capsaicin-induced Ca influx in human TRPV1 transformed CHO cell line using FDSS-6000). Settings: concentration at which the capsaicin concentration-reaction curve is shifted two times to the right, human TRPV1 transformed CHO cells.
T1 construct: expressed in transfected cells; host or cells: CHO-K1
T1 sequence (Q8NER1 whole entry): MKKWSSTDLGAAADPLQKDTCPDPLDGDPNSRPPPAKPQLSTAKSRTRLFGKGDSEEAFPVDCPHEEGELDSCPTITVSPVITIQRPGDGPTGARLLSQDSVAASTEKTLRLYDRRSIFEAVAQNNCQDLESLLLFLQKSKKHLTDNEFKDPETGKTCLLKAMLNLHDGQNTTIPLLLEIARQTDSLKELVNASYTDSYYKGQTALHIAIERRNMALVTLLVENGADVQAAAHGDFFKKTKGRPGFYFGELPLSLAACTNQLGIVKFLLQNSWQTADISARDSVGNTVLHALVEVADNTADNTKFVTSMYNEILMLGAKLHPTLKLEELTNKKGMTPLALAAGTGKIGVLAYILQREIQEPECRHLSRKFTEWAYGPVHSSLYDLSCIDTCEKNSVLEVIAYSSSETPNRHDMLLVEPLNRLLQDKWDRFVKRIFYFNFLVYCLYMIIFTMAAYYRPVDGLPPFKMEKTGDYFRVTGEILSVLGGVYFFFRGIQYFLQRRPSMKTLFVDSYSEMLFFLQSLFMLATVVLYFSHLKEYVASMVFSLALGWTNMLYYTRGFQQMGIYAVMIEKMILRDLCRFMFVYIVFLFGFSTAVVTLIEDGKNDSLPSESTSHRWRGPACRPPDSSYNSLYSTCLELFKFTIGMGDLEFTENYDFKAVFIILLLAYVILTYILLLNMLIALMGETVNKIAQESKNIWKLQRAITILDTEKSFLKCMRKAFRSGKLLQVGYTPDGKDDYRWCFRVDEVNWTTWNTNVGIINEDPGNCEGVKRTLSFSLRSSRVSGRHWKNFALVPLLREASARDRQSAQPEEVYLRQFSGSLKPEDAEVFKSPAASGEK
Assay type: cell-based
For `CC1(C)CC1C(=O)N1CC/C(=C\C(=O)Nc2cccc3c2CC(O)CC3)c2ccc(C(F)(F)F)cc21` (centres unmarked) [Example 109, (E)-2-(7-trifluoromethyl-2,3-dihydro-1-((2,2-dimethylcyclopropane)carbonyl)quinolin-4(1H)-ylidene)-N-(7-hydroxy-5,6,7,8-tetrahydronaphthalen-1-yl)acetamide], the “A2 VALUE” was “A (compounds of the present invention having an A2 value of less than 100 nM are represented by A)”. `O=C(/C=C1\CCN(C(=O)C2CCC(C(F)(F)F)CC2)c2cc(C(F)(F)F)ccc21)Nc1cccc2c1CC(O)CC2` (centres unmarked) [Example 110] was tested, and the “A2 VALUE” was “A (compounds of the present invention having an A2 value of less than 100 nM are represented by A)”. With `O=C(/C=C1\CCN(C(=O)c2ccco2)c2cc(C(F)(F)F)ccc21)Nc1cccc2c1CC(O)CC2` (centres unmarked) [Example 111, (E)-2-(7-trifluoromethyl-2,3-dihydro-1-(2-furancarbonyl)quinolin-4(1H)-ylidene)-N-(7-hydroxy-5,6,7,8-tetrahydronaphthalen-1-yl)acetamide] the “A2 VALUE” was “A (compounds of the present invention having an A2 value of less than 100 nM are represented by A)”. `O=C(/C=C1\CCN(C(=O)C2(O)CC2)c2cc(C(F)(F)F)ccc21)Nc1cccc2c1CC(O)CC2` (centres unmarked) [Example 112, (E)-2-(1-(1-hydroxycyclopropanecarbonyl)-7-trifluoromethyl-2,3-dihydroquinolin-4(1H)-ylidene)-N-(7-hydroxy-5,6,7,8-tetrahydronaphthalen-1-yl)acetamide] was tested, and the “A2 VALUE” was “B (compounds having an A2 value of 100 nM or more are represented by B)”. For `O=CN1CC/C(=C\C(=O)Nc2cccc3c2CC(O)CC3)c2ccc(C(F)(F)F)cc21` (centres unmarked) [Example 114, (E)-2-(1-formyl-7-trifluoromethyl-2,3-dihydroquinolin-4(1H)-ylidene)-N-(7-hydroxy-5,6,7,8-tetrahydronaphthalen-1-yl)acetamide], the “A2 VALUE” was “A (compounds of the present invention having an A2 value of less than 100 nM are represented by A)”. `O=C(/C=C1\CCN(C(=O)C2(F)CCCC2)c2cc(C(F)(F)F)ccc21)Nc1cccc2c1CC(O)CC2` (centres unmarked) [Example 115, (E)-2-(1-(1-fluorocyclopentanecarbonyl)-7-trifluoromethyl-2,3-dihydroquinolin-4(1H)-ylidene)-N-(7-hydroxy-5,6,7,8-tetrahydronaphthalen-1-yl)acetamide] was tested, and the “A2 VALUE” was “A (compounds of the present invention having an A2 value of less than 100 nM are represented by A)”. `CC(F)(F)CC(=O)N1CC/C(=C\C(=O)Nc2cccc3c2CC(O)CC3)c2ccc(C(F)(F)F)cc21` (centres unmarked) [Example 116, (E)-2-(1-(3,3-difluorobutanoyl)-7-trifluoromethyl-2,3-dihydroquinolin-4(1H)-ylidene)-N-(7-hydroxy-5,6,7,8-tetrahydronaphthalen-1-yl)acetamide] was tested, and the “A2 VALUE” was “A (compounds of the present invention having an A2 value of less than 100 nM are represented by A)”. For `CCC(F)(F)CC(=O)N1CC/C(=C\C(=O)Nc2cccc3c2CC(O)CC3)c2ccc(C(F)(F)F)cc21` (centres unmarked) [Example 117, (E)-2-(1-(3,3-difluoropentanoyl)-7-trifluoromethyl-2,3-dihydroquinolin-4(1H)-ylidene)-N-(7-hydroxy-5,6,7,8-tetrahydronaphthalen-1-yl)acetamide], the “A2 VALUE” was “A (compounds of the present invention having an A2 value of less than 100 nM are represented by A)”. In the case of `O=C(/C=C1\CCN(C(=O)C2CC(F)(F)C2)c2cc(C(F)(F)F)ccc21)Nc1cccc2c1CC(O)CC2` (centres unmarked) [Example 118, (E)-2-(1-(3,3-difluorocyclobutanecarbonyl)-7-trifluoromethyl-2,3-dihydroquinolin-4(1H)-ylidene)-N-(7-hydroxy-5,6,7,8-tetrahydronaphthalen-1-yl)acetamide], the “A2 VALUE” is reported as “A (compounds of the present invention having an A2 value of less than 100 nM are represented by A)”. For `O=C1CCc2cccc(NC(=O)/C=C3\CCOc4cc(C(F)(F)F)ccc43)c2C1` [Example 119, (E)-N-(7-oxo-5,6,7,8-tetrahydronaphthalen-1-yl)-2-(7-trifluoromethyl-chroman-4-ylidene)acetamide], the “A2 VALUE” was “A (compounds of the present invention having an A2 value of less than 100 nM are represented by A)”. With `O=C(/C=C1\CCOc2cc(C(F)(F)F)ccc21)Nc1cccc2ccc(O)cc12` [Example 120, (E)-N-(7-hydroxynaphthalen-1-yl)-2-(7-trifluoromethyl-chroman-4-ylidene)acetamide] the “A2 VALUE” was “A (compounds of the present invention having an A2 value of less than 100 nM are represented by A)”. For `O=C(/C=C1\CCOc2cc(C(F)(F)F)ccc21)Nc1cccc2c1CC(O)C(=O)N2` (centres unmarked) [Example 121, (E)-N-(3-hydroxy-2-oxo-1,2,3,4-tetrahydroquinolin-5-yl)-2-(7-trifluoromethyl-chroman-4-ylidene)acetamide], the “A2 VALUE” was “A (compounds of the present invention having an A2 value of less than 100 nM are represented by A)”. For `O=C(/C=C1\CCOc2cc(C(F)(F)F)ccc21)Nc1cccc2c1CC(O)CN2` (centres unmarked) [Example 122, (E)-N-(3-hydroxy-1,2,3,4-tetrahydroquinolin-5-yl)-2-(7-trifluoromethyl-chroman-4-ylidene)acetamide], the “A2 VALUE” was “A (compounds of the present invention having an A2 value of less than 100 nM are represented by A)”. In the case of `O=C(/C=C1\CCOc2cc(C(F)(F)F)ccc21)Nc1cccc2c1CC(O)CO2` (centres unmarked) [Example 125, (E)-N-(3-hydroxy-chroman-5-yl)-2-(7-trifluoromethyl-chroman-4-ylidene)acetamide], the “A2 VALUE” is reported as “A (compounds of the present invention having an A2 value of less than 100 nM are represented by A)”. `O=C(/C=C1\CCCOc2cc(C(F)(F)F)ccc21)Nc1cccc2cc(O)ccc12` [Example 126, (E)-N-(6-hydroxynaphthalen-1-yl)-2-(8-trifluoromethyl-3,4-dihydrobenzo[b]oxepin-5(2H)-ylidene)acetamide] was tested, and the “A2 VALUE” was “A (compounds of the present invention having an A2 value of less than 100 nM are represented by A)”. `CS(=O)(=O)O.O=C(/C=C1\CCCOc2cc(C(F)(F)F)ccc21)Nc1ccc2cccnc2c1` [Example 127, (E)-2-(8-trifluoromethyl-3,4-dihydrobenzo[b]oxepin-5(2H)-ylidene)-N-(quinolin-7-yl)acetamide methanesulfonate] was tested, and the “A2 VALUE” was “A (compounds of the present invention having an A2 value of less than 100 nM are represented by A)”. In the case of `O=C(/C=C1\CCCOc2cc(C(F)(F)F)ccc21)Nc1ccc2ccc(O)cc2c1` [Example 128, (E)-2-(8-trifluoromethyl-3,4-dihydrobenzo[b]oxepin-5(2H)-ylidene)-N-(7-hydroxynaphthalen-2-yl)acetamide], the “A2 VALUE” is reported as “A (compounds of the present invention having an A2 value of less than 100 nM are represented by A)”. `COc1ccc2cccc(NC(=O)/C=C3\CCCOc4cc(C(F)(F)F)ccc43)c2c1` [Example 129, (E)-2-(8-trifluoromethyl-3,4-dihydrobenzo[b]oxepin-5(2H)-ylidene)-N-(7-methoxynaphthalen-1-yl)acetamide] was tested, and the “A2 VALUE” was “B (compounds having an A2 value of 100 nM or more are represented by B)”. For `COCCN1CCCc2ccc(NC(=O)/C=C3\CCCOc4cc(C(F)(F)F)ccc43)cc21` [Example 130, (E)-2-(8-trifluoromethyl-3,4-dihydrobenzo[b]oxepin-5(2H)-ylidene)-N-(1-(2-methoxyethyl)-1,2,3,4-tetrahydroquinolin-7-yl)acetamide], the “A2 VALUE” was “A (compounds of the present invention having an A2 value of less than 100 nM are represented by A)”. In the case of `O=C(/C=C1\CCCOc2cc(C(F)(F)F)ccc21)Nc1ccc2c(c1)NC(=O)CC2` [Example 133, (E)-2-(8-trifluoromethyl-3,4-dihydrobenzo[b]oxepin-5(2H)-ylidene)-N-(3,4-dihydro-1H-quinolin-2-on-7-yl)acetamide], the “A2 VALUE” is reported as “A (compounds of the present invention having an A2 value of less than 100 nM are represented by A)”. For `O=C(/C=C1\CCCOc2cc(C(F)(F)F)ccc21)Nc1ccc2ccc(=O)[nH]c2c1` [Example 134, (E)-2-(8-trifluoromethyl-3,4-dihydrobenzo[b]oxepin-5(2H)-ylidene)-N-(2-quinolon-7-yl)acetamide], the “A2 VALUE” was “A (compounds of the present invention having an A2 value of less than 100 nM are represented by A)”. `COc1cc(NC(=O)/C=C2\CCCOc3cc(C(F)(F)F)ccc32)cc(C(F)(F)F)c1` [Example 135, (E)-2-(8-trifluoromethyl-3,4-dihydrobenzo[b]oxepin-5(2H)-ylidene)-N-(3-methoxy-5-(trifluoromethyl)phenyl)acetamide] was tested, and the “A2 VALUE” was “A (compounds of the present invention having an A2 value of less than 100 nM are represented by A)”. `O=C(/C=C1\CCCOc2cc(C(F)(F)F)ccc21)Nc1ccc(Cl)c(C(F)(F)F)c1` [Example 136, (E)-2-(8-trifluoromethyl-3,4-dihydrobenzo[b]oxepin-5(2H)-ylidene)-N-(4-chloro-3-(trifluoromethyl)phenyl)acetamide] was tested, and the “A2 VALUE” was “A (compounds of the present invention having an A2 value of less than 100 nM are represented by A)”. In the case of `O=C(/C=C1\CCCOc2cc(C(F)(F)F)ccc21)Nc1ccc2cc[nH]c2c1` [Example 137, (E)-2-(8-trifluoromethyl-3,4-dihydrobenzo[b]oxepin-5(2H)-ylidene)-N-(indol-6-yl)acetamide], the “A2 VALUE” is reported as “A (compounds of the present invention having an A2 value of less than 100 nM are represented by A)”. For `O=C(/C=C1\CCCOc2cc(C(F)(F)F)ccc21)Nc1ccc2[nH]ccc2c1` [Example 138, (E)-2-(8-trifluoromethyl-3,4-dihydrobenzo[b]oxepin-5(2H)-ylidene)-N-(indol-5-yl)acetamide], the “A2 VALUE” was “A (compounds of the present invention having an A2 value of less than 100 nM are represented by A)”. For `O=C(/C=C1\CCCOc2cc(C(F)(F)F)ccc21)Nc1ccc2c(c1)OCCCO2` [Example 142, (E)-2-(8-trifluoromethyl-3,4-dihydrobenzo[b]oxepin-5(2H)-ylidene)-N-(3,4-dihydro-2H-benzo[b]dioxepin-7-yl)acetamide], the “A2 VALUE” was “A (compounds of the present invention having an A2 value of less than 100 nM are represented by A)”.
